What all share (type): biochemical, Methylomonas sp. 12
Series [1] addresses T1, ATP-Glk (Methylomonas sp., UniProt A0A3G4RI75).
T1 construct: full-length, His6-tagged (N-terminal), pET30(a)+ in E. coli Rosetta (DE3), Ni-NTA; gene 990 bp; di- to hexamers
The series is described as follows: effect on glucokinase activity with ATP and glucose. The source says: effect on glucokinase activity with ATP and glucose on ATP-Glk

The test system of series [2] is T2, Nc1ncnc2c1ncn2[C@@H]1O[C@H](COP(=O)(O)OP(=O)(O)OP(=O)(O)O)[C@@H](O)[C@H]1O.
T2 construct: full-length, His6-tagged (N-terminal), pET30(a)+ in E. coli Rosetta (DE3), Ni-NTA; gene 990 bp; di- to hexamers
Put plainly: purified protein. Particulars: saturating glucose, Mg2+, pH 7.5, 30 °C.

Series [3] has as its target T3, polyP-Glk (Methylomonas sp., UniProt A0A3G4RHV5).
T3 construct: gene pglk; full-length, His6-tagged (N-terminal), E. coli Rosetta (DE3), Ni-NTA; gene 795 bp; dimer with polyP
The series is described as follows: glucose 6-phosphate dehydrogenase coupled NADP+ reduction at […] nm. To be noted: saturating polyP (n=45); Mg2+; pH 8.5; 28 °C.

Series [4] deals with T1, ATP-Glk. Described as above. To be noted: saturating ATP; Mg2+; pH 7.5; 30 °C.
For series [5], the target named is T3, polyP-Glk. The series is described as follows: effect on glucokinase activity with polyP and glucose. To be noted: polyP (n=45) and glucose as substrates; activator, not a phosphoryl donor; ATP concentration not printed in table (10 mM elsewhere in the source). From the text: effect on glucokinase activity with polyP and glucose on polyP-Glk

T3 sequence (A0A3G4RHV5 1-264): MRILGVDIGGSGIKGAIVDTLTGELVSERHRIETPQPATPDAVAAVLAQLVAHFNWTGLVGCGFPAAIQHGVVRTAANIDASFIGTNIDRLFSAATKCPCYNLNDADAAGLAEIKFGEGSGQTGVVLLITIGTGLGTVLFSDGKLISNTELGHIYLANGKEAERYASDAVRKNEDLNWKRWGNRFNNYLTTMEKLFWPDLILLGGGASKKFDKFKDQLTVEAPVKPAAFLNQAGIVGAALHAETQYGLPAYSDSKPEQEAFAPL
T1 sequence (A0A3G4RI75 1-329): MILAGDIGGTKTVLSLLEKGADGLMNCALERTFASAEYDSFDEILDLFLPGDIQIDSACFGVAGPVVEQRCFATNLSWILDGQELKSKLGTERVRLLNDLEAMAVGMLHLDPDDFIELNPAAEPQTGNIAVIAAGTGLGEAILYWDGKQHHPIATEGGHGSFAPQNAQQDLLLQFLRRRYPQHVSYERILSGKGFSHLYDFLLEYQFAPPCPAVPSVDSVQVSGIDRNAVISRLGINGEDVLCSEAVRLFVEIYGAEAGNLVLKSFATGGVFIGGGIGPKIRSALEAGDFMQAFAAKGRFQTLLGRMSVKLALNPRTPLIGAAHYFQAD

Compound `Nc1ncnc2c1ncn2[C@@H]1O[C@H](COP(=O)(O)OP(=O)(O)O)[C@@H](O)[C@H]1O` [ADP] yielded an activity at 5000 µM in series [1] of 48.9%. For orientation: Km means the substrate concentration at which the rate is half of its maximum. A word on the kcat: it is the maximal rate divided by the concentration of active sites. The term kcat/Km denotes the second-order rate constant that governs catalysis at low substrate concentration. Take ATP-Glk (Methylomonas methanica): in series [2], the Michaelis-Menten constant (Km) is 78 ± 5.6 µM, the kcat was determined as 0.126 s⁻¹ and the specificity constant (kcat/Km) is 1610 M⁻¹ s⁻¹. `OC[C@H]1OC(O)[C@H](O)[C@@H](O)[C@@H]1O` (stereo partly shown) [glucose]: the Km stood at 450 ± 120 µM in series [3] and 80 ± 7 µM in series [4]. For `Nc1ncnc2c1ncn2[C@@H]1O[C@H](COP(=O)(O)OP(=O)(O)OP(=O)(O)O)[C@@H](O)[C@H]1O` [ATP], the “PolyP-Glk **” value in series [5] was 155.0%.

Values taken from publication PMC6406325, “ATP- and Polyphosphate-Dependent Glucokinases from Aerobic Methanotrophs” (Microorganisms, 2019).
